Measured values reported in publication PMC8877724 (Journal of medicinal chemistry, 2020).
“Also recorded” adds a separate entry of the source. Like-named read-outs stand apart in the source and are kept apart here. Values belong to the compound of their own block, whether it stands above or below them.

What was measured:
[1] = Reaction with excess cysteamine monitored by 1H NMR; format: physicochemical
[2] = tested on: NF-κB signaling in A549 cells bearing a stably transfected NF-κB-driven luciferase reporter gene; assay: NF-κB luciferase reporter assay, TNF-α induced; format: cell-based; conditions: tested at 5-20 μM, 20 μM the highest concentration tested
[3] = tested on: NF-κB signaling in HEK293 cells containing a stably transfected NF-κB-driven SEAP reporter gene; assay: NF-κB secreted alkaline phosphatase; format: cell-based, human; conditions: tested at 1-7.5 μM, SEAP reporter assay
[4] = tested on: Vero cells; assay: Vero cell viability assay; format: cell-based, African green monkey; conditions: 48 h
[5] = target: T1, La antigen (Homo sapiens, UniProt P05455); conditions: cited from earlier work
T1 sequence (P05455 100-324 limits assumed): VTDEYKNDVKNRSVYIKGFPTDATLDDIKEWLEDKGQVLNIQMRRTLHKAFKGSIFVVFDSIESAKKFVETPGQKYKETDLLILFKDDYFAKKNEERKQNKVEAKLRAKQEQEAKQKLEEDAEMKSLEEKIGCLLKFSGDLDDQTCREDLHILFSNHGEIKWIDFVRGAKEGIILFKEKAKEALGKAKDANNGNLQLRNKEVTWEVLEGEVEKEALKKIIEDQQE

[6] = cited from earlier work
[7] = tested on: HEK293/NF-κB-SEAP cells; assay: Cellular cytotoxicity accompanying the SEAP reporter assay; format: cell-based, human; conditions: 7.5 μM
[8] = tested on: A549/NF-κB-luc cells; conditions: 10 μM, A549/NF-κB-luc assay; cited from earlier work

- Half-life ([1]; HSCH2CH2NH2 (15 equiv), CDCl3 (0.006 M), rt): 7 min
Compound: 3-methylene-9-phenyl-3,3a,4,5-tetrahydroazuleno[4,5-b]furan-2,8(7H,9bH)-dione [Compound S17]

Compound: C=C1C(=O)N[C@@H]2C3=C(c4ccccc4)C(=O)CC3=C(C)CC[C@@H]12 (relative stereo) [Compound 45, (3aS*,9bS*)-6-Methyl-3-methylene-9-phenyl-3,3a,4,5-tetrahydro-1H-azuleno[4,5-b]pyrrole-2,8(7H,9bH)-dione]
- NF-κB inhibition (in words) [2]: did not inhibit NF-κB signaling; also recorded: no NF-κB inhibition

Compound: C=C1C(=O)N[C@@H]2C3=CC(=O)CC3=C(C)CC[C@@H]12 (relative stereo) [Compound 47, (3aS*,9bS*)-6-Methyl-3-methylene-1,3a,4,5,7,9b-hexahydro-2H-azuleno[4,5-b]pyrrole-2,8(3H)-dione]
- NF-κB inhibition (in words) [3]: little or no inhibition
- cytotoxicity (in words) [4]: low cytotoxicity
- NF-κB inhibition (in words) [2]: did not inhibit NF-κB signaling; also recorded: little or no inhibition

Compound: C=C1C(=O)N(C)[C@@H]2C3=C(c4ccccc4)C(=O)CC3=C(C)CC[C@@H]12 (relative stereo) [Compound 48, (3aS*,9bS*)-1,6-Dimethyl-3-methylene-9-phenyl-1,3a,4,5,7,9b-hexahydro-2H-azuleno[4,5-b]pyrrole-2,8(3H)-dione]
- NF-κB inhibition (in words) [2]: no inhibitory activities

Compound: C=C1C(=O)N(c2ccccc2)[C@@H]2C3=C(c4ccccc4)C(=O)CC3=C(C)CC[C@@H]12 (relative stereo) [Compound 49, (3aS*,9bS*)-6-Methyl-3-methylene-1,9-diphenyl-1,3a,4,5,7,9b-hexahydro-2H-azuleno[4,5-b]pyrrole-2,8(3H)-dione]
- NF-κB inhibition (in words) [2]: no inhibitory activities; also recorded: little NF-κB inhibitory activity; also recorded: no NF-κB inhibition

Compound: C=C1C(=O)N(c2ccc(OC)cc2)[C@@H]2C3=C(c4ccccc4)C(=O)CC3=C(C)CC[C@@H]12 (relative stereo) [Compound 52, (3aS*,9bS*)-1-(4-Methoxyphenyl)-6-methyl-3-methylene-9-phenyl-1,3a,4,5,7,9b-hexahydro-2H-azuleno[4,5-b]pyrrole-2,8(3H)-dione]
- NF-κB inhibition (in words) [2]: no inhibitory activities; also recorded: little NF-κB inhibitory activity; also recorded: no NF-κB inhibition

Compound: C=C1C(=O)N(S(=O)(=O)c2ccc(C)cc2)[C@@H]2C3=C(c4ccccc4)C(=O)CC3=C(C)CC[C@@H]12 (relative stereo) [Compound 54, (3aS*,9bS*)-6-Methyl-3-methylene-9-phenyl-1-tosyl-1,3a,4,5,7,9b-hexahydro-2H-azuleno[4,5-b]pyrrole-2,8(3H)-dione]
- time to complete reaction with cysteamine ([1]; cysteamine (15 equiv), CDCl3, rt, disappearance of methylene resonances by 1H NMR): less than 10 min

Compound: C=CC(=O)N1CCC[C@@H](n2nc(-c3ccc(Oc4ccccc4)cc3)c3c(N)ncnc32)C1 [Ibrutinib]
- ALARM NMR result [5]: ALARM NMR negative

Compound: C=C1C(=O)O[C@@H]2[C@H]3O[C@]3(C)CC/C=C(\C)CC[C@@H]12 [PTL, parthenolide]
- time to complete reaction with cysteamine [6]: less than 5 min
- cytotoxicity (in words) [7]: moderate level of cytotoxicity
- cytotoxicity (in words) [8]: no cytotoxicity
